“Also recorded” adds a separate entry of the source. Square brackets hold non-standard residues; d marks the D form. Ends that are not written are not given here. Peptide text beside a SMILES is read from it. pGlu = O=C1CC[C@@H](C(=O)O)N1
Key:
[1] = tested on: DIO mice; assay: Glycemia in DIO mice after bolus injection; type: in vivo, mouse; conditions: vs control
Protocol: We also tested the ability of the exendin-4-Angiopep-2 dimer conjugate to reduce glycemia in DIO mice. Mice were injected with a bolus containing a control, exendin-4, or the exendin-4-Angiopep-2 dimer conjugate.

[2] = tested on: mouse brain; conditions: in vivo
Protocol: To measure brain uptake of the exendin-4/Angiopep-2 conjugates, we used an in situ perfusion assay. […] Briefly, the right common carotid artery of mice anesthetized with ketamine/xylazine (140/8 mg/kg i.p.) was exposed and ligated at the level of the bifurcation of the common carotid, rostral to the occipital artery. The common carotid was then catheterized rostrally with polyethylene tubing filled with heparin (25 U/ml) and mounted on a 26-gauge needle. […] Prior to the perfusion, the contralateral blood flow contribution was eliminated by severing the heart ventricles. […] Mice were then decapitated to terminate perfusion and the right hemisphere was isolated on ice before being subjected to capillary depletion. Aliquots of homogenates, supernatants, pellets, and perfusates were taken to measure their contents and to evaluate the apparent volume of distribution.

[3] = tested on: ob/ob mice; assay: Treatment of obese (ob/ob) mice with Exen-An2: body weight, food intake, glycemia; type: in vivo, mouse; conditions: higher doses (exendin-4 30 μg/kg, Exen-An2 48 μg/kg), vs control
Protocol: The body weight of each mouse was measured daily. Food intake was estimated based on the mean values for each group, and glycemia was measured one hour following treatment.

[4] = molecular target: NTSR1 (Homo sapiens, UniProt P30989); assay: biochemical
Chain of NTSR1 (P30989 whole entry): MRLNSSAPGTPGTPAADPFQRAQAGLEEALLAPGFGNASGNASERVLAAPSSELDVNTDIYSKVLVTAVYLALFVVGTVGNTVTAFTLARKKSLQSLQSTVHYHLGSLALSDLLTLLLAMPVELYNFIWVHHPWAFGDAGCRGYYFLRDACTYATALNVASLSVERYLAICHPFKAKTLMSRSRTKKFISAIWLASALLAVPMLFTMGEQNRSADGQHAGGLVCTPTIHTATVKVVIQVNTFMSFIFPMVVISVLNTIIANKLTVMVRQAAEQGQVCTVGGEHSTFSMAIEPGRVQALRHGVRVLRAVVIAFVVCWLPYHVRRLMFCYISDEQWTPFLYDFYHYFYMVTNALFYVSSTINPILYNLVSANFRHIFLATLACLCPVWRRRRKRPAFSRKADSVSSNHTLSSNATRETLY

[5] = tested on: mice; assay: Hot plate test (analgesia) in mice; conditions: 15 minutes following injection, NT-An2 20 mg/kg, buprenorphine 1 mg/kg
[6] = tested on: mice; assay: Body temperature (hypothermia induction) in mice; type: in vivo; conditions: for Δ Max temp: mouse, in vivo
Protocol: We also tested whether higher doses of the conjugate would results in greater induction of hypothermia.
At this time, the infusion was increased to 40 mg/kg/hr.

[7] = tested on: rats; assay: Body temperature (sustained hypothermia) in rats; type: in vivo
Protocol: A similar experiment was performed in rats.
A similar experiment was conducted in rats.
A further experiment, conducted over a 12-hour period, was also performed in rats.

[8] = tested on: mice brains; assay: In situ brain perfusion of iodinated NT and NT-An2; type: in vivo
Excerpt: Following iodination, mice brains were perfused in the carotid artery with either [^125I]-NT or the [^125I]-NT-An2 derivative in Krebs buffer for the indicated times. After the indicated times, brains were further perfused for 30 sec to washout the excess of both compound. Both [^125I]-NT or [^125I]-NT-An2 derivative in brain were quantified using a […]. Results are expressed in terms of brain volume of distribution (ml/100 g) as a function of time.
Brain capillary depletion was performed using Dextran following standard procedures. Both [^125I]-NT or [^125I]-NT-An2 derivative present in brain, capillaries, and parenchyma were quantified and volume of distribution (ml/100 g/2 min) is reported.
To confirm that the NT-An2 conjugate crosses the BBB, both NT and the conjugate were iodinated using standard procedures, and in situ brain perfusion was performed using methods standard in the art. The initial transport was measured as a function of time (FIG. 42). […] Higher levels of NT-An2 were found in the brain parenchyma when compared to NT.

[9] = tested on: blood-brain barrier; conditions: mouse, in vivo

Question: How did the glycemia [1] turn out when exendin-4 was run?
Answer: Its glycemia is “reduced glycemia”.

Question: And the brain distribution [2]?
Answer: Its brain distribution is 0.2 ml/100 g/2 min.

Question: And the body weight gain ([3]; after 10 days of daily treatment)?
Answer: The body weight gain was “lower than the control; also recorded: reduce weight gain”.

Question: What about the food intake [3] of the same compound?
Answer: Its food intake is “reduced; also recorded: reduce food intake”.

Question: With `CC[C@H](C)[C@H](NC(=O)[C@H](Cc1ccc(O)cc1)NC(=O)[C@@H]1CCCN1C(=O)[C@H](CCCNC(=N)N)NC(=O)[C@H](CCCNC(=N)N)NC(=O)[C@H](CCCCN)NC(=O)[C@@H]1CCC(=O)N1)C(=O)N[C@@H](CC(C)C)C(=O)O` [pGlu-Lys-NT(8-13)] ([pGlu]KRRPYIL-OH; C-terminus assumed) as the compound, how does the IC50 [4] read?
Answer: Its IC50 is 1.3 nM.

Question: Which IC50 [4] does the source give for `CC[C@H](C)[C@H](NC(=O)[C@@H](Cc1ccc(O)cc1)NC(=O)[C@@H]1CCCN1C(=O)[C@H](CCCNC(=N)N)NC(=O)[C@H](CCCNC(=N)N)NC(=O)[C@H](CCCCN)NC(C)=O)C(=O)N[C@@H](CC(C)C)C(=O)O` [AcLysNT(8-13)D-tyr11, Ac-KRRPD-YIL-OH] (Ac-KRRP[dY]IL-OH) here?
Answer: The IC50 was 5390 nM.

Question: For “NT-An2: Neurotensin Angiopep-2-Cys amide conjugate via EMCS/MHA linker; different production batches”, which “latency of foot licking behavior (hot plate)” value [5] is on record?
Answer: Its value is “increased the latency of foot licking behavior in a statistically significant manner”.

Question: And the “reduction in body temperature” value ([6]; mice, 5, 15, or 20 mg/kg, monitored for 120 minutes)?
Answer: The value was “Small differences between these higher doses”.

Question: And the body temperature ([6]; mice, i.v. bolus 20 mg/kg then 20 mg/kg/hr for 2.5 hours, then 40 mg/kg/hr, 360 minute time course)?
Answer: The body temperature was “reduction in body temperature”.

Question: What about the “effect on body temperature” value ([6]; mice, i.v. bolus, monitored 120 minutes, conjugates compared with control) of the same compound?
Answer: Its value is “greatest reduction in body temperature; also recorded: larger effect”.

Question: What about the body temperature ([6]; mice, intravenous, NT 1 mg/kg or equivalent dose of conjugate (2.5 mg/kg)) of the same compound?
Answer: Its body temperature is “rapid decrease in the body temperature”.

Question: What about the body temperature ([6]; mice, intravenous, NT-An2 5 mg/kg) of the same compound?
Answer: Its body temperature is “stronger decrease in body temperature”.

Question: What about the “Δ Max temp” value ([6]; listed as ANG-NT (prep #1)) of the same compound?
Answer: The value was −4 to −5 °C.

Question: And the “Δ Max temp” value ([6]; listed as ANG-NT (prep #2))?
Answer: The value was −4 to −5 °C.

Question: What about the “Δ Max temp” value ([6]; listed as ANG-NT (prep #3)) of the same compound?
Answer: The value was −3 to −4 °C.

Question: And the “Δ Max temp” value ([6]; listed as ANG-NT (prep #4))?
Answer: Its value is −2 to −4 °C.

Question: What about the body temperature ([7]; 40 mg/kg i.v. bolus followed by infusion, 12-hour period, 40 mg/kg) of the same compound?
Answer: The body temperature was “sustained reduction in body temperature; also recorded: prolonged reduction of body temperature”.

Question: And the body temperature ([7]; i.v. 20 mg/kg then 20 mg/kg/hr infusion, 360-minute time course)?
Answer: Its body temperature is “sustained reduction in body temperature”.

Question: What about the maximal temperature drop ([7]; i.v. bolus 20 mg/kg then 20 mg/kg/hr for […], after 90 minutes) of the same compound?
Answer: The maximal temperature drop was “about 3.5 °C”.

Question: What about the “trapping in the brain capillaries” value ([8]; 2 min in situ perfusion, capillary depletion) of the same compound?
Answer: Its value is “not trapped in the brain capillaries”.

Question: And the “levels in the brain parenchyma” value ([8]; 2 min in situ perfusion, capillary depletion, compared to NT)?
Answer: Its value is “Higher levels”.

Question: What about the initial brain uptake ([8]; in situ brain perfusion, as a function of time, iodinated compounds) of the same compound?
Answer: The initial brain uptake was “higher than for the unconjugated NT”.

Question: “leptin(116-130) (SCHLPWASGLETLDS-NH2; UniProt P41159 116-130, looked up, fragment) [leptin116-130]” was tested. Which “transport across the BBB” value [9] did it give?
Answer: The value was “reduced as compared to in lean mice”.

— patent US20110288011A1, “PEPTIDE THERAPEUTIC CONJUGATES AND USES THEREOF” (priority 2008, published 2011)
